Experimental data taken from paper PMC10974622, “Hybrid Peptide-Alkoxyamine Drugs: A Strategy for the Development of a New Family of Antiplasmodial Drugs” (Molecules, 2024).
Where two headings read alike, the source gives them in different places. *1 amine or outer side, *2 acyl side, *3 side chain or, on linkers, in order; H or OH if unused. Where a SMILES comes first, the peptide text is derived from it. [ ]: non-standard residue; d: D form. The star is where a group is joined. Suc = O=C(CCC(=O)[*:2])[*:1]; Boc = CC(C)(C)OC(=O)*; OBn = c1ccc(CO*)cc1

Experiments:
[1] = test system: P. falciparum strain F32-ART (artemisinin-resistant); test: microbe, parasite or virus in culture; format: cell-based, Plasmodium falciparum; settings: for Selectivity Index CC50/IC50: cytotoxicity (Vero cells)/antiplasmodial activity (F32-ART) ratio
Source text: The antimalarial activity of peptide-alkoxyamine hybrids was first evaluated in the in vitro antiproliferative test (IC50) using the artemisinin-resistant strain F32-ART (Table 2, Table S1). The roles of the N-substitution of the alkoxyamine moiety (TEMPO- or DBNO-based, for example, A3L/A8L, line 1/line 10), of the configuration (L or D of the peptide, A3L/A3D, line 1/line 2), of the N-protection of the peptide (A3L/A4L or A5L, line 1/ lines 3 and 5) were examined. According to standard rules in the malaria field, only molecules having IC50 values below 1 μM were considered active.
The F32-ART (artemisinin-resistant) strain and the F32-TEM (artemisinin-sensitive strain) were cultured according to Trager and Jensen in RPMI 1640 medium (Fisher Scientific, Illkirch, France) supplemented with 5% human serum (Etablissement français du Sang, Toulouse, France) at 2% hematocrit with type O human blood (Etablissement français du Sang, Toulouse, France), 37 °C, and 5% CO2 in a humidified atmosphere.
(§1) IC50 values corresponding to 50% inhibition of P. falciparum growth were determined by SYBR Green assay, and the assessment of cytotoxicity was performed on Vero cells (cell line from the kidney of a normal adult African green monkey), as previously published. The selectivity index corresponded to the cytotoxicity/activity ratio.

in vitro = format: cell-based, African green monkey; settings: Cytotoxicity CC50
Description: as §1

[2] = Kinetic analysis of alkoxyamine bond homolysis by EPR; format: physicochemical; settings: Equation (2), A = 2.4 · 10^14 s^−1
Description: The kinetic homolysis for peptide-alkoxyamines reported in Table 1 was recorded in EPR using two solvents, tert-butylbenzene (t-BuPh) or an n-propanol:water (1:1, v:v) mixture. The growth of nitroxide was recorded in the presence of an alkyl radical scavenger, i.e., O2 here, to suppress the back reaction (kc in Scheme 4), as already reported.
Homolysis rate constants kd are given by Equation (1) ([nitroxide]∞ = [alkoxyamine]0 = 0.1 mM), and the subsequent activation energy values Ea are given by Equation (2), as follows:(1) lnnitroxide∞−nitroxidet/nitroxide∞=−kd·t (2) Ea=−RTlnkd/A

Vero cells = settings: cited from earlier work
F32-ART parasites = test: Parasitemia monitoring and parasite morphology upon drug exposure, F32-ART ring-stage parasites; format: cell-based, Plasmodium falciparum; settings: 48 h exposure
Description: The effect of hybrid compounds against Plasmodium parasites was assessed by the microscopic examination of parasite morphology upon drug exposure. For this purpose, parasites were synchronized at 0–4 h age by percoll-sorbitol treatment, 0–24 h age by sorbitol treatment, or at schizont stage by percoll treatment at the start of the experiment. Different treatment schedules were tested. In the case of multiple doses, parasite cultures were washed before each new drug addition.

[3] = test system: F32-ART parasites at the quiescent stage; test: Quiescent-stage Survival Assay (QSA); format: cell-based, Plasmodium falciparum; settings: 700 nM DHA, compound at 7 µM
Description: In this assay, parasites were exposed to dihydroartemisinin (DHA) alone to induce quiescence, prior the addition of the drug to be tested for 48 h, and then the parasite recrudescence was monitored over a maximum of 4 weeks. Activity against quiescent parasites was evidenced by a delay in recrudescence time over 6 days between the conditions “DHA 6 h / DHA 48 h” and “DHA 6 h/(DHA + molecule) 48 h”. Atovaquone was used as a positive control, and its activity against quiescent parasites was here confirmed, as expected, by an extended delay of 11 days in recrudescence time (Figure 5). By contrast, no activity of A8L and A3L against quiescent parasites was evidenced in the QSA, with similar recrudescence time between the conditions “DHA 6 h/DHA 48 h” and “DHA 6 h/(DHA + molecule) 48 h”. […] To understand this phenomenon, we explored the parasite response during treatment with these hybrid compounds.
The QSA was performed according to Reyser et al.. Briefly, ART-resistant ring-stage parasites at 3% parasitemia were exposed for 6 h to 700 nM of DHA (dihydroartemisinin) to induce quiescence or were exposed to no drugs (control condition). After that, the compound to be tested was added in both conditions […]. At the end of the treatment, the drugs were washed off with RPMI-1640, and parasites were replaced in drug-free conditions. Blood smears were performed to follow parasitemia until the day the cultures reached their starting parasitemia, defined as the recrudescence day. If after 30 days no parasite recrudescence was observed, then the data were censored. Data analysis was performed using Kaplan–Meier survival curves. Statistical significance was ascertained by using a log-rank (Mantel-Cox) test using GraphPad Prism 7 software (San Diego, CA, USA).

[4] = Plasmodium falciparum, F32, read-out: Antiplasmodial Activity IC50, strain F32-ART, SYBR Green assay, mean ± SEM of 3 to 6 experiments
[5] = strain F32-ART, SYBR Green assay, mean ± SEM of 3 to 6 experiments, read-out: Antiplasmodial Activity IC50
[6] = read-out: Antiplasmodial Activity IC50, strain F32-ART, SYBR Green assay, mean ± SEM of 3 to 6 experiments

Row | SMILES | CC50 (in vitro; African green monkey) | IC50 [1, 5] | CC50 (Vero cells) | further results
1 | C[C@@H]1CC[C@H]2[C@@H](C)C(=O)O[C@@H]3O[C@@]4(C)CC[C@@H]1[C@]32OO4 [ART, Artemisinin, reference compound] | > 50 µM | – | – | IC50 [1, 4]: 0.031 ± 0.006 µM; Selectivity Index CC50/IC50 [1]: >1500
2 | CC(C)[C@@H](NC(=O)[C@@H](Cc1ccccc1)NC(=O)OC(C)(C)C)C(=O)N[C@H](Cc1ccccc1)C(=O)O [P7D] (Boc-[dF]-[dV]-[dF]-OH) | > 50 µM | > 10 µM | – | –
3 | CC(C)[C@@H](NC(=O)[C@H](N)Cc1ccccc1)C(=O)N[C@H](Cc1ccccc1)C(=O)OCc1ccccc1 [P8D] (H-[dF]-[dV]-[dF]-OBn) | > 50 µM | > 50 µM | – | –
4 | CC(ON1C(C)(C)CCCC1(C)C)c1ccc(NC(=O)[C@@H](Cc2ccccc2)NC(=O)[C@H](NC(=O)[C@H](N)Cc2ccccc2)C(C)C)cc1 (stereo partly drawn) [A5D] | – | – | – | Selectivity Index CC50/IC50 [1]: 1.0; IC50 [1, 6]: 2.25 ± 0.17 µM
5 | CC(ON(C(C)(C)C)C(C)(C)C)c1ccc(NC(=O)[C@@H](Cc2ccccc2)NC(=O)[C@H](NC(=O)[C@@H](Cc2ccccc2)NC(=O)OC(C)(C)C)C(C)C)cc1 (stereo partly drawn) [A8D] | > 50 µM | – | – | IC50 [1, 4]: 50 µM; activation energy Ea ([2]; in t-BuPh): 28.94 kcal/mol; activation energy Ea ([2]; in water/n-PrOH 1/1 v/v): 28.32 kcal/mol
6 | CC(C)[C@H](NC(=O)[C@@H](N)Cc1ccccc1)C(=O)N[C@@H](Cc1ccccc1)C(=O)O [P11L] (H-Phe-Val-Phe-OH) | – | > 10 µM | > 50 µM | –
7 | CC(C)[C@H](NC(=O)[C@@H](N)Cc1ccccc1)C(=O)N[C@@H](Cc1ccccc1)C(=O)OCc1ccccc1 [P8L] (H-Phe-Val-Phe-OBn) | > 50 µM | > 50 µM | – | –
8 | CCc1ccc(NC(=O)[C@@H](Cc2ccccc2)NC(=O)[C@H](NC(=O)[C@H](N)Cc2ccccc2)C(C)C)cc1 [P22D] | – | – | – | CC50 (in vitro): 11 ± 1.6 µM
9 | CC(ON(C(C)(C)C)C(C)(C)C)c1ccc(NC(=O)[C@@H](Cc2ccccc2)NC(=O)[C@H](NC(=O)[C@H](N)Cc2ccccc2)C(C)C)cc1 (stereo partly drawn) [AW230] | 9 ± 1.2 µM | – | – | IC50 [1, 4]: 3.73 ± 0.26 µM
10 | CC(C)[C@H](NC(=O)[C@H](Cc1ccccc1)NC(=O)CCC(=O)OCc1ccccc1)C(=O)N[C@@H](Cc1ccccc1)C(=O)OCc1ccccc1 [P9L, N-(Bn)succinyl-L-Phe-L-Val-L-Phe–OBn] | > 50 µM | > 50 µM | – | –
11 | CC(C)[C@H](NC(=O)[C@H](Cc1ccccc1)NC(=O)OC(C)(C)C)C(=O)N[C@@H](Cc1ccccc1)C(=O)O [P7L, Boc-L-Phe-L-Val-L-Phe–OH] (Boc-Phe-Val-Phe-OH) | – | > 50 µM | > 50 µM | –
12 | CC(C)[C@H](NC(=O)[C@H](Cc1ccccc1)NC(=O)CCC(=O)OCc1ccccc1)C(=O)N[C@@H](Cc1ccccc1)C(=O)O [P12L] | – | > 10 µM | > 50 µM | –
13 | CCc1ccc(NC(=O)[C@H](Cc2ccccc2)NC(=O)[C@@H](NC(=O)[C@@H](N)Cc2ccccc2)C(C)C)cc1 [P22L] | – | > 10 µM | > 50 µM | –
14 | C[C@H]1[C@@H](O)O[C@@H]2O[C@@]3(C)CC[C@H]4[C@H](C)CC[C@@H]1[C@@]24OO3 [DHA, dihydroartemisinin, reference compound] | – | – | – | effect on parasitemia and parasite cell cycle (F32-ART parasites): high parasitemia decrease
15 | CC(C)[C@H](NC(=O)[C@H](Cc1ccccc1)NC(=O)OC(C)(C)C)C(=O)N[C@@H](Cc1ccccc1)C(=O)OCc1ccccc1 [P6L] (Boc-Phe-Val-Phe-OBn) | > 50 µM | > 50 µM | – | –
16 | CCc1ccc(NC(=O)[C@H](Cc2ccccc2)NC(=O)[C@@H](NC(=O)[C@H](Cc2ccccc2)NC(=O)CCC(=O)O)C(C)C)cc1 [P24L] | – | > 10 µM | > 50 µM | –
17 | CC(ON(C(C)(C)C)C(C)(C)C)c1ccc(NC(=O)[C@@H](Cc2ccccc2)NC(=O)[C@@H](NC(=O)[C@H](Cc2ccccc2)NC(=O)OC(C)(C)C)C(C)C)cc1 (stereo partly drawn) [A8DL] | > 50 µM | – | – | IC50 [1, 4]: 0.87 ± 0.04 µM; Selectivity Index CC50/IC50 [1]: >57; activation energy Ea ([2]; in t-BuPh): 28.51 kcal/mol; activation energy Ea ([2]; in water/n-PrOH 1/1 v/v): 28.3 kcal/mol
18 | CC(ON1C(C)(C)CCCC1(C)C)c1ccccc1 (stereo not drawn) [compound 4, reference compound] | – | – | – | IC50 [1, 4]: > 10 µM
19 | CC(C)[C@@H](NC(=O)[C@@H](Cc1ccccc1)NC(=O)OC(C)(C)C)C(=O)N[C@H](Cc1ccccc1)C(=O)OCc1ccccc1 [P6D, Boc-D-Phe-D-Val-D-Phe–OBn] (Boc-[dF]-[dV]-[dF]-OBn) | 3.2 ± 0.2 µM | > 50 µM | – | –
20 | CCc1ccc(NC(=O)[C@@H](Cc2ccccc2)NC(=O)[C@H](NC(=O)[C@@H](Cc2ccccc2)NC(=O)OC(C)(C)C)C(C)C)cc1 [P21D] | – | > 50 µM | > 50 µM | –
21 | O=C1C(O)=C([C@H]2CC[C@H](c3ccc(Cl)cc3)CC2)C(=O)c2ccccc21 [Atovaquone, reference compound] | – | – | – | delay in recrudescence time between DHA 6 h/DHA 48 h and DHA 6 h/(DHA + molecule) 48 h [3]: 11 days
22 | CCc1ccc(NC(=O)[C@H](Cc2ccccc2)NC(=O)[C@@H](NC(=O)[C@H](Cc2ccccc2)NC(=O)OC(C)(C)C)C(C)C)cc1 [P21L] | – | > 50 µM | > 50 µM | –
23 | CC(ON(C(C)(C)C)C(C)(C)C)c1ccc(NC(=O)[C@@H](Cc2ccccc2)NC(=O)OC(C)(C)C)cc1 (stereo partly drawn) [A9D] | – | – | – | activation energy Ea ([2]; in t-BuPh): 28.87 kcal/mol; activation energy Ea ([2]; in water/n-PrOH 1/1 v/v): 28.42 kcal/mol
24 | CCc1ccc(NC(=O)[C@H](Cc2ccccc2)NC(=O)[C@@H](NC(=O)[C@H](Cc2ccccc2)NC(=O)CCC(=O)OCc2ccccc2)C(C)C)cc1 [P23L] | – | > 10 µM | > 50 µM | –
25 | CC(C)[C@H](NC(=O)[C@H](Cc1ccccc1)NC(=O)CCC(=O)O)C(=O)N[C@@H](Cc1ccccc1)C(=O)O [P10L] (Suc-Phe-Val-Phe-OH) | – | > 50 µM | > 50 µM | –
26 | CC(C)[C@H](NC(=O)[C@@H](N)Cc1ccccc1)C(=O)N[C@@H](Cc1ccccc1)C(=O)O [P18L] (H-Phe-Val-Phe-OH) | – | > 5 µM | > 25 µM | –
27 | CC(ON1C(C)(C)CCCC1(C)C)c1ccc(NC(=O)[C@H](Cc2ccccc2)NC(=O)[C@@H](NC(=O)[C@H](Cc2ccccc2)NC(=O)CCC(=O)OCc2ccccc2)C(C)C)cc1 (stereo partly drawn) [A6L] | – | – | > 50 µM | IC50 [1, 4]: 7 µM; Selectivity Index CC50/IC50 [1]: >6.9; IC50 [1, 6]: 7.2 µM
28 | CC(ON(C(C)(C)C)C(C)(C)C)c1ccc(NC(=O)[C@H](Cc2ccccc2)NC(=O)OC(C)(C)C)cc1 (stereo partly drawn) [A9L] | – | – | – | activation energy Ea ([2]; in t-BuPh): 28.8 kcal/mol; activation energy Ea ([2]; in water/n-PrOH 1/1 v/v): 28.42 kcal/mol
29 | CC(ON1C(C)(C)CCCC1(C)C)c1ccc(NC(=O)[C@@H](Cc2ccccc2)NC(=O)[C@H](NC(=O)[C@@H](Cc2ccccc2)NC(=O)OC(C)(C)C)C(C)C)cc1 (stereo partly drawn) [A3D] | > 50 µM | – | – | IC50 [1, 4]: > 50 µM
30 | CC(C)[C@@H](NC(=O)[C@H](N)Cc1ccccc1)C(=O)N[C@H](Cc1ccccc1)C(=O)O [P11D] (H-[dF]-[dV]-[dF]-OH; N-terminus and C-terminus assumed) | > 50 µM | – | – | –
